# Data taken from patent US20020198221A1, “N-methyl-N-(3-{3-[2-thienylcarbonyl]-pyrazol-[1,5-alpha]-pyrimidin-7-yl}phenyl)acetamide and compositions and, methods related thereto” (priority 1999, published 2002).
# Entries after “also recorded” stand apart in the source; their conditions may differ.
# Key:
# [1] = target: benzodiazepine site on the GABAA receptor; assay: [3H]flunitrazepam binding to rat cortex; details: for IC50: rat cortex, read-out: IC50, displacement of [3H]flunitrazepam binding
# rats [2] = assay: prevention of chemically induced convulsions in rats; assay type: in vivo, rat; details: for ED50: Rattus norvegicus
# Text: Benzodiazepine sedative-hypnotic agents are potent anticonvulsants in animals, and are used clinically for the treatment of status epilepticus. Oral doses of Compound 1 were effective in blocking convulsions in rats which resulted from injections of agents know to induce convulsion (see Table 1 below).
# rats [3] = assay: motor activity in rats (activity meter); assay type: in vivo, rat; details: for ED50: Rattus norvegicus
# Protocol: (§1) The sedative effects of Compound 1 were measured in rats using a panel of standard tests which monitor the effects of drugs on motor activity, muscle relaxation and motor coordination.
# (§2) This latter compound is well characterized as a competitive antagonist at the benzodiazepine site, which can reverse the effects of benzodiazepine site agonists.
# (§3) Administration of benzodiazopines to animals and to man for periods of several weeks can result in a tolerance to their sedative effects (Finkle, supra). In order to assess tolerance to Compound 1, its effects were tested on rat motor activity, and on grip strength using the inclined screen procedures after single and repeated administrations. The results of these studies were then compared to results gathered from rats which had received similar dosings of triazolam.
# rats [4] = assay: inclined screen grip strength test; assay type: in vivo, rat; details: for ED50: Rattus norvegicus
# Protocol: as §1, §2, §3
# rats [5] = assay: potentiation of ETOH delivered 24 hours after dosing (hangover liability); assay type: in vivo, rat; details: for Hangover Liability Index: ETOH 24 hours after administration; for potentiation of ETOH delivered 24 hours after drug treatment: rat, in vivo
# Protocol: The important observation that Compound 1 causes very little potentiation of ETOH was extended by determining a Hangover Liability Index, the measure of the ability of the drug to potentiate ETOH 24 hours after administration (see Table 3 below). Sedative-hypnotic agents have been reported to produce drowsiness, confusion and other side effects in man on the day following the normal overnight use of these compounds.
# [6] = target: benzodiazepine site on the GABAA receptor; assay: [3H]flunitrazepam binding to rat cerebellum membranes; details: read-out: IC50, inhibition of [3H]flunitrazepam binding
# squirrel monkeys [7] = assay: EEG studies in squirrel monkeys; assay type: in vivo, squirrel monkey; details: 4.0 mg/kg i.m.
# Protocol: (§4) Compound 1 produced dose-related increases in sleep duration in rats, with a minimum effective dose of 2.0 mg/kg.
# rats [8] = assay: sleep duration in rats; assay type: in vivo, rat
# Protocol: as §4
# rats [9] = assay: rod walking test; assay type: in vivo; details: Rattus norvegicus, oral
# Protocol: as §1
# GABAA receptor = assay: [35S]TBPS binding to rat cortex membranes
# Text: TBPS binds to a site on the GABAA receptor which is closely associated with the chloride channel, and an increase in TBPS binding correlates with increased activation of the chloride conductance (i.e., enhanced GABAA receptor function). Compounds which act as agonists at the benzodiazepine site increase TBPS binding to varying degrees, which reflects their relative efficacies.
# squirrel monkeys [10] = assay: vigilance test (reaction time) in squirrel monkeys; assay type: in vivo, squirrel monkey; details: >1 mg/kg orally one hour before testing
# Text: Vigilance tests based on reaction time measurements in monkeys measure drug induced slowing of responses and decreases in attentional or cognitive processes. Squirrel monkeys were trained to respond to a visual trigger by bar pressing for a food reward.
# rats [11] = assay: one-trial passive avoidance test (amnesia); assay type: in vivo, rat; details: for Amnestic Liability Index: ratio ED50 decreased motor activity / MED to produce amnesia
# Protocol: This effect can be studied in rats by the one-trial passive avoidance test. In this test an undrugged, naive rat is given an electric shock when it moves from the illuminated side to the darkened side of a two-compartment chamber. When tested for recall of this training 24 hours later, a placebo-injected animal will show excellent recall of the aversive training, and thus a high latency time for entering the darkened side.
# rats [12] = assay: prevention of electrical shock induced convulsions; assay type: in vivo; details: Rattus norvegicus; oral; 150 mA, 60 Hz transcorneal shock for 0.3 seconds; read-out: ED50 blocking electrical shock induced convulsions
# rats [13] = assay: panel of standard tests for sedative effects in rats (motor activity, muscle relaxation, motor coordination); assay type: in vivo, rat
# Protocol: as §1
# rats [14] = assay: Thirsty Rat Conflict Procedure; assay type: in vivo
# Protocol: The Thirsty Rat Conflict Procedure involves rats which are deprived of water for 48 hours. They are then given brief electrical shocks following each 20th lick of a drinking tube. These shocks create a “conflict situation” which results in a marked decrease in licking (drinking) behavior.
# squirrel monkeys [15] = assay: Squirrel Monkey Conflict Procedure; assay type: in vivo
# Protocol: The Squirrel Monkey Conflict Procedure involves monkeys which are initially trained to press a bar to receive a food reward. In later sessions the animals were given occasional electrical shocks following randomly selected bar presses. These animals responded to the conflict situation by substantially lowering their levels of bar-pressing activity. […] This increase in conflict response reflects the anxiolytic effects of the drug. The increase drops off at 4.0 mg/kg, which may be due to a subtle sedative effect of the compound which begins developing in this dose range. The inverted-U shaped dose-response function described above for Compound 1 is consistent with the profile of other sedative-hypnotic drugs of the benzodiazepine-ligand class, and reflects the sedative properties of these drugs (Cook and Sepinwall, supra).
# rats [16] = assay: potentiation of ETOH-induced loss of righting response, ETOH 60 minutes after dosing; assay type: in vivo, rat; details: for ETOH Liability Index: ratio ED50 motor activity / MED ETOH potentiation; for Minimum Effective Dose (MED mg/kg) to potentiate ETOH-induced loss of righting response: rats, ETOH 3.2 g/kg i.p. 60 minutes after dosing
# Text: Benzodiazepines and barbiturate sedative-hypnotics produce a profound potentiation of the deleterious effects of ethanol (ETOH) in man and animals (Ayd, supra). Intraperitoneal ETOH alone, when administered to rats at a dose of 3.2 g/kg, produces a reliable loss of righting response. The loss of righting response caused by ETOH can be used to measure the possible interaction of ETOH with test drugs. This is done by delivering the ETOH and a test drug sequentially, and determining the Minimum Effective Dose of test drug which will potentiate the time that ETOH produces the loss of righting response. The ETOH Liability Index for a drug can be determined by calculating the ratio of (1) the ED50 of the test drug to decrease motor activity (a measure of sedation) to (2) the Minimum Effective Dose (MED) of the test drug to potentiate the time for ETOH-induced loss of righting response.
# ETOH Liability Indices were determined experimentally for Compound 1, flurazepam and triazolam by intraperitoneally delivering ETOH (3.2 g/kg) to the animals 60 minutes after dosing with each test drug (see Table 2 below).
# [17] = 3.1 mg/kg Compound 1 p.o. + 10 mg/kg Ro 15-1788 i.p.
# [18] = Table 2, read-out: Decrease in Motor Activity (ED50 mg/kg)
# [19] = fourth day of daily dosing, read-out: ED50 motor activity, tolerance study
# [20] = single administration, read-out: ED50 motor activity, tolerance study
# [21] = inclined screen, fourth day of daily dosing, read-out: ED50 grip strength, tolerance study
# [22] = inclined screen, single administration, read-out: ED50 grip strength, tolerance study
smiles,measurement,setting,value
Cc1ccc(-c2nc3ccc(C)cn3c2CC(=O)N(C)C)cc1 [zolpidem],IC50,[1],26 nM
"CC(=O)N(C)c1cccc(-c2ccnc3c(C(=O)c4cccs4)cnn23)c1 [Compound 1, N-methyl-N-(3-{3-[2-thienylcarbonyl]-pyrazol-[1,5-α]-pyrimidin-7-yl}phenyl)acetamide]",ED50,"rats [2]; rats, oral, inducer Bicuculline (iv), read-out: ED50 preventing convulsion",2.3 mg/kg
same,ED50,"rats [2]; rats, oral, inducer Pentylenetetrazol (iv), read-out: ED50 preventing convulsion",2.5 mg/kg
same,ED50,"rats [2]; read-out: ED50 preventing convulsion, rats, oral, inducer Picrotoxin (sc)",1.9 mg/kg
same,ED50,"rats [2]; read-out: ED50 preventing convulsion, rats, oral, inducer Strychnine (sc)",4.4 mg/kg
same,anticonvulsant potency relative to reference drugs,rats [2]; all five methods (four chemical inducers and electrical shock),less than that of triazolam and greater than that of flurazepam
same,effect on motor/locomotor activity with Ro 15-1788 co-treatment,rats [3]; [17],antagonize the decreases in motor activity; also recorded: reversed
same,ED50,rats [3]; [18],1.2 mg/kg
same,ED50,rats [3]; [19],14.5 mg/kg
same,ED50,"rats [3]; po, activity meter, read-out: ED50 for decrease in motor activity",1.2 mg/kg
same,ED50,rats [3]; [20],2.4 mg/kg
same,effect on grip strength (inclined screen) with Ro 15-1788 co-treatment,rats [4]; [17],reverse the impairment of grip strength; also recorded: reversed
same,ED50,rats [4]; [21],18.3 mg/kg
same,ED50,rats [4]; [22],2.6 mg/kg
same,ED50,"rats [4]; po, inclined screen grip strength test, read-out: ED50 for muscle relaxant effects",2.7 mg/kg
same,Hangover Liability Index,rats [5],0.0
same,potentiation of ETOH delivered 24 hours after drug treatment,rats [5],failed to potentiate ETOH
same,IC50,[6],2 nM
same,changes in EEG power spectrum,squirrel monkeys [7],a relative decrease in alpha activity and an increase in beta activity
same,minimum effective dose for increase in sleep duration,rats [8],2.0 mg/kg
same,ED50,rats [9],3 mg/kg
same,"Emax, maximum enhancement of TBPS binding",GABAA receptor,65%
same,effect on accuracy and latency of responses,squirrel monkeys [10],dose related decrements in both the accuracy and latency of the responses
same,amnestic effect,"rats [11]; rat, in vivo",small amnestic effect compared to triazolam or flurazepam
same,Amnestic Liability Index,rats [11],0.15
same,ED50,rats [12],5.5 mg/kg
same,sedative potency relative to reference drugs,rats [13],approximately equipotent with triazolam and more potent than zolpidem and flurazepam
same,IC50,[1],9.8 nM
same,increase in number of shocks accepted vs vehicle control,rats [14]; oral 0.3 mg/kg,100%
same,increase in conflict response,squirrel monkeys [15]; 4.0 mg/kg,drops off
same,increase above baseline responses to conflict situation,squirrel monkeys [15]; oral 2.0 mg/kg,100%
same,times less ETOH liability compared to triazolam and flurazepam,"rats [16]; rat, in vivo, oral, 60 min",≥ 10 times
same,ETOH Liability Index,rats [16],0.48
same,Minimum Effective Dose (MED mg/kg) to potentiate ETOH-induced loss of righting response,rats [16],2.5 mg/kg
CN1C(=O)CN=C(c2ccccc2F)c2cc([N+](=O)[O-])ccc21 [flunitrazepam],IC50,[1],114 nM
CCN(CC)CCN1C(=O)CN=C(c2ccccc2F)c2cc(Cl)ccc21 [flurazepam],ED50,rats [3]; [18],24.9 mg/kg
same,Hangover Liability Index,rats [5],2.5
same,potentiation of ETOH delivered 24 hours after drug treatment,rats [5],significantly potentiated
same,"Emax, maximum enhancement of TBPS binding",GABAA receptor,71%
same,Amnestic Liability Index,rats [11],3.1
same,ETOH Liability Index,rats [16],4.98
same,Minimum Effective Dose (MED mg/kg) to potentiate ETOH-induced loss of righting response,rats [16],5.0 mg/kg
CC(=O)Nc1cccc(-c2ccnc3c(C(=O)c4cccs4)cnn23)c1 [desmethyl metabolite of Compound 1],"Emax, maximum enhancement of TBPS binding",GABAA receptor,28%
same,sedative effects in the test panel,"rats [13]; motor activity, inclined screen, rod walking",did not show sedative effects
same,times less potent than Compound 1 in displacing radiolabeled flunitrazepam,[1],approximately 74 times
same,IC50,[1],725 nM
same,effect in thirsty rat conflict model,rats [14]; 12 mg/kg,without effect
"Cc1nnc2n1-c1ccc(Cl)cc1C(c1ccccc1Cl)=NC2 [triazolam, reference compound]",ED50,rats [3]; [18],1.6 mg/kg
same,ED50,rats [3]; [19],> 100 mg/kg
same,ED50,rats [3]; [20],3.9 mg/kg
same,ED50,rats [4]; [21],> 100 mg/kg
same,ED50,rats [4]; [22],5.1 mg/kg
same,Hangover Liability Index,rats [5],10
same,potentiation of ETOH delivered 24 hours after drug treatment,rats [5],significantly potentiated
same,"Emax, maximum enhancement of TBPS binding",GABAA receptor,78%
same,Amnestic Liability Index,rats [11],1.6
same,IC50,[1],0.5 nM
same,ETOH Liability Index,rats [16],20
same,Minimum Effective Dose (MED mg/kg) to potentiate ETOH-induced loss of righting response,rats [16],.08 mg/kg
CN1C(=O)CN=C(c2ccccc2)c2cc(Cl)ccc21 [diazepam],"Emax, maximum enhancement of TBPS binding",GABAA receptor,55%
same,IC50,[1],17 nM
